Values after ≈ are worked out from the molar mass of the structure shown.

The first test has as its system E. faecalis ATCC 29212. In words: MIC against E. faecalis ATCC 29212. Type of test: cell-based. The conditions noted are these: Enterococcus faecalis, ATCC29212, read-out: MIC.
Regarding `CSC1O[C@H]([C@H](NC(=O)[C@H]2NC[C@@H]3C=C(C#Cc4cccc(F)c4)CCO[C@@H]23)[C@H](C)Cl)C(O)[C@@H](O)[C@H]1O` (stereo partly shown) [FSA-510003], the MIC – broadly, the lowest concentration that inhibits growth of the organism – was found to be 1 µg/mL (≈ 1.8 µM).
Consider `CSC1O[C@H]([C@H](NC(=O)[C@H]2NC[C@@H]3C[C@@H](c4ccc(C#N)cc4)CCO[C@H]32)[C@H](C)Cl)C(O)[C@@H](O)[C@H]1O` (stereo partly shown) [FSA-511046], for which the minimum inhibitory concentration (MIC) was 1 µg/mL (≈ 1.85 µM).
In the case of `COc1ccc(C2=CCO[C@@H]3[C@H](CN[C@@H]3C(=O)N[C@H]([C@H](C)Cl)[C@H]3OC(SC)[C@H](O)[C@H](O)C3O)C2)cc1` (stereo partly shown) [FSA-511020], the minimal inhibitory concentration (MIC) is 4 µg/mL (≈ 7.37 µM).
Still for that read-out and setting: the same measure for `CSC1O[C@H]([C@H](NC(=O)[C@@H]2[C@@H]3OCC=CC[C@H]3CN2C2CC2)[C@H](C)Sc2ccc(-c3cccnc3)cc2)C(O)[C@@H](O)[C@H]1O` (stereo partly shown) [FSA-214009a]: over 64 µg/mL.

The next test concerns S. aureus MP-549 msr(a) USA 300. Put plainly: MIC against S. aureus MP-549 msr(a) USA 300. Type of test: cell-based. The conditions noted are these: Staphylococcus aureus, USA300, S. aureus MP-549 msr(a) USA 300.
Consider `CSC1O[C@H]([C@H](NC(=O)[C@H]2NC[C@@H]3C[C@@H](c4ccc(C#N)cc4)CCO[C@H]32)[C@H](C)Cl)C(O)[C@@H](O)[C@H]1O` (stereo partly shown) [FSA-511046], for which inhibition of growth (MIC) required 0.5 µg/mL (≈ 0.926 µM).
Same read-out and setting: for `COc1ccc(C2=CCO[C@@H]3[C@H](CN[C@@H]3C(=O)N[C@H]([C@H](C)Cl)[C@H]3OC(SC)[C@H](O)[C@H](O)C3O)C2)cc1` (stereo partly shown) [FSA-511020] the value was 1 µg/mL (≈ 1.84 µM).

The subject of the next test is S. pyogenes ATCC 19615. Put plainly: MIC against S. pyogenes ATCC 19615. Type of test: cell-based. Conditions: Streptococcus pyogenes, ATCC19615; S. pyogenes ATCC 19615; read-out: MIC.
For `CSC1O[C@H]([C@H](NC(=O)[C@H]2NC[C@@H]3C[C@@H](c4ccc(C#N)cc4)CCO[C@H]32)[C@H](C)Cl)C(O)[C@@H](O)[C@H]1O` (stereo partly shown) [FSA-511046], the MIC is at most 0.06 µg/mL.
In the case of `COc1ccc(C2=CCO[C@@H]3[C@H](CN[C@@H]3C(=O)N[C@H]([C@H](C)Cl)[C@H]3OC(SC)[C@H](O)[C@H](O)C3O)C2)cc1` (stereo partly shown) [FSA-511020], the minimal inhibitory concentration (MIC) is at most 0.06 µg/mL.
The same measure, in the same setting: for `CSC1O[C@H]([C@H](NC(=O)[C@@H]2[C@@H]3OCC=CC[C@H]3CN2C2CC2)[C@H](C)Sc2ccc(-c3cccnc3)cc2)C(O)[C@@H](O)[C@H]1O` (stereo partly shown) [FSA-214009a] the value was 4 µg/mL (≈ 6.37 µM).

For the next test, the system named is E. coli MP-9 ΔTolC. Put plainly: MIC against E. coli MP-9 ΔTolC. Type of test: cell-based. The conditions noted are these: Escherichia coli.
With `CSC1O[C@H]([C@H](NC(=O)[C@H]2NC[C@@H]3C=C(C#Cc4cccc(F)c4)CCO[C@@H]23)[C@H](C)Cl)C(O)[C@@H](O)[C@H]1O` (stereo partly shown) [FSA-510003], the MIC was over 64 µg/mL.
The same measure, in the same setting: the same measure for `CSC1O[C@H]([C@H](NC(=O)[C@H]2NC[C@@H]3C[C@@H](c4ccc(C#N)cc4)CCO[C@H]32)[C@H](C)Cl)C(O)[C@@H](O)[C@H]1O` (stereo partly shown) [FSA-511046]: 8 µg/mL (≈ 14.8 µM).

The subject of a further test is S. pneumoniae ATCC 49619. In words: MIC against S. pneumoniae ATCC 49619. Type of test: cell-based. Conditions: Streptococcus pneumoniae, ATCC49619; S. pneumoniae ATCC 49619; read-out: MIC.
As to `CSC1O[C@H]([C@H](NC(=O)[C@H]2NC[C@@H]3C[C@@H](c4ccc(C#N)cc4)CCO[C@H]32)[C@H](C)Cl)C(O)[C@@H](O)[C@H]1O` (stereo partly shown) [FSA-511046], the minimal inhibitory concentration (MIC) is at most 0.06 µg/mL.
Still for that read-out and setting: for `COc1ccc(C2=CCO[C@@H]3[C@H](CN[C@@H]3C(=O)N[C@H]([C@H](C)Cl)[C@H]3OC(SC)[C@H](O)[C@H](O)C3O)C2)cc1` (stereo partly shown) [FSA-511020] the value was at most 0.06 µg/mL; for `CSC1O[C@H]([C@H](NC(=O)[C@@H]2[C@@H]3OCC=CC[C@H]3CN2C2CC2)[C@H](C)Sc2ccc(-c3cccnc3)cc2)C(O)[C@@H](O)[C@H]1O` (stereo partly shown) [FSA-214009a], 4 µg/mL (≈ 6.37 µM).

For another test, the system named is E. coli ATCC 25922. Put plainly: MIC against E. coli ATCC 25922. Type of test: cell-based. The conditions noted are these: Escherichia coli, ATCC25922.
In turn, `CSC1O[C@H]([C@H](NC(=O)[C@H]2NC[C@@H]3C=C(C#Cc4cccc(F)c4)CCO[C@@H]23)[C@H](C)Cl)C(O)[C@@H](O)[C@H]1O` (stereo partly shown) [FSA-510003] displayed an MIC of over 64 µg/mL.

Still in this test, the particulars now being: Escherichia coli, ATCC25922; E. coli ATCC 25922; read-out: MIC.
As to `COc1ccc(C2=CCO[C@@H]3[C@H](CN[C@@H]3C(=O)N[C@H]([C@H](C)Cl)[C@H]3OC(SC)[C@H](O)[C@H](O)C3O)C2)cc1` (stereo partly shown) [FSA-511020], the MIC was over 64 µg/mL.

The next test has as its system E. coli ATCC 15922. Put plainly: MIC against E. coli ATCC 15922. It counts as cell-based. Conditions: Escherichia coli, ATCC15922; E. coli ATCC 15922; read-out: MIC.
`CSC1O[C@H]([C@H](NC(=O)[C@H]2NC[C@@H]3C[C@@H](c4ccc(C#N)cc4)CCO[C@H]32)[C@H](C)Cl)C(O)[C@@H](O)[C@H]1O` (stereo partly shown) [FSA-511046]: the MIC is over 64 µg/mL.
As for `CSC1O[C@H]([C@H](NC(=O)[C@@H]2[C@@H]3OCC=CC[C@H]3CN2C2CC2)[C@H](C)Sc2ccc(-c3cccnc3)cc2)C(O)[C@@H](O)[C@H]1O` (stereo partly shown) [FSA-214009a], the minimum inhibitory concentration (MIC) was over 64 µg/mL.

A further test deals with K. pneumoniae ATCC 10031. Put plainly: MIC against K. pneumoniae ATCC 10031. Type of test: cell-based. Conditions: Klebsiella pneumoniae, ATCC10031; K. pneumoniae ATCC 10031; read-out: MIC.
As to `COc1ccc(C2=CCO[C@@H]3[C@H](CN[C@@H]3C(=O)N[C@H]([C@H](C)Cl)[C@H]3OC(SC)[C@H](O)[C@H](O)C3O)C2)cc1` (stereo partly shown) [FSA-511020], the MIC was over 64 µg/mL.

For another test, the system named is S. aureus ATCC 29213. Put plainly: MIC against S. aureus ATCC 29213. Type of test: cell-based. The conditions noted are these: S. aureus ATCC 29213.
Turning to `CSC1O[C@H]([C@H](NC(=O)[C@H]2NC[C@@H]3C[C@@H](c4ccc(C#N)cc4)CCO[C@H]32)[C@H](C)Cl)C(O)[C@@H](O)[C@H]1O` (stereo partly shown) [FSA-511046], the minimal inhibitory concentration (MIC) stood at 1 µg/mL (≈ 1.85 µM).

The test is the same for the next values; noted with them: Staphylococcus aureus, ATCC29213, S. aureus ATCC 29213; read-out: MIC.
Take `CSC1O[C@H]([C@H](NC(=O)[C@H]2NC[C@@H]3C=C(C#Cc4cccc(F)c4)CCO[C@@H]23)[C@H](C)Cl)C(O)[C@@H](O)[C@H]1O` (stereo partly shown) [FSA-510003]: the MIC worked out at 0.5 µg/mL (≈ 0.901 µM).
On the same count and under the same terms, for `COc1ccc(C2=CCO[C@@H]3[C@H](CN[C@@H]3C(=O)N[C@H]([C@H](C)Cl)[C@H]3OC(SC)[C@H](O)[C@H](O)C3O)C2)cc1` (stereo partly shown) [FSA-511020] the value was 0.5 µg/mL (≈ 0.921 µM).

Source of the values: US20220073554A1, “LINCOSAMIDE ANTIBIOTICS AND USES THEREOF” (President and Fellows of Harvard College, priority 2017, published 2022).
